How the values were obtained:
Assay type in all cases: in vivo
Setaria viridis (SETVI) [1] = test: Pre-emergence herbicidal action against SETVI
Procedure, shortened: (§1)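 Read-out is visual percent damage relative to untreated pots, with 100% meaning dead plants and 0% meaning no difference, assessed roughly three weeks after treatment. Compounds were applied pre-emergence to the covering soil at up to 320 g/ha.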

[2] = tested on: Amaranthus retroflexus (AMARE); test: Pre-emergence herbicidal action against AMARE; conditions: visual scoring after about 3 weeks vs untreated controls
Procedure, shortened: as §1

Avena fatua (AVEFA) [3] = test: Post-emergence herbicidal action against AVEFA; conditions: visual rating about 3 weeks after treatment
Procedure, shortened: (§2)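 Post-emergence greenhouse spray, one-leaf stage, 600 l/ha water plus 0.5% additive; WP or EC formulations; application rates 320 g/ha or lower. Visual % damage vs untreated controls at ~3 weeks.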

Viola tricolor (VIOTR) [4] = test: Pre-emergence herbicidal action against VIOTR
Procedure, shortened: as §1

[5] = tested on: Pharbitis purpurea (PHBPU); test: Pre-emergence herbicidal action against PHBPU; conditions: dosage 320 g/ha
Procedure, shortened: as §1

Viola tricolor (VIOTR) [6] = test: Post-emergence herbicidal action against VIOTR
Procedure, shortened: as §2

[7] = tested on: Alopecurus myosuroides (ALOMY); test: Post-emergence herbicidal action against ALOMY; conditions: visual rating about 3 weeks after treatment vs untreated controls (100% = plants have died, 0% = like control plants)
Procedure, shortened: as §2

Setaria viridis (SETVI) [8] = test: Post-emergence herbicidal action against SETVI
Procedure, shortened: as §2

[9] = tested on: Verconica persica (VERPE); test: Pre-emergence herbicidal action against VERPE
Procedure, shortened: as §1

[10] = tested on: Verconica persica (VERPE); test: Post-emergence herbicidal action against VERPE
Procedure, shortened: as §2

[11] = tested on: Matricaria inodora (MATIN); test: Pre-emergence herbicidal action against MATIN; conditions: dosage 320 g/ha
Procedure, shortened: as §1

Avena fatua (AVEFA) [12] = test: Pre-emergence herbicidal action against AVEFA; conditions: visual scoring after about 3 weeks vs untreated controls
Procedure, shortened: as §1

[13] = tested on: Alopecurus myosuroides (ALOMY); test: Pre-emergence herbicidal action against ALOMY; conditions: scored visually after about 3 weeks, 100% = plants have died
Procedure, shortened: as §1

[14] = tested on: Echinochloa crus-galli (ECHCG); test: Post-emergence herbicidal action against ECHCG
Procedure, shortened: as §2

Zea mays (ZEAMX) = conditions: crop plant compatibility, 80 g/ha, effect vs untreated controls
Procedure, shortened: (§3)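 Visual rating (% effect vs. untreated plants; 100% = plant death) made about 3 weeks after treatment. Plants had been sprayed at one-leaf stage, 2–3 weeks post-sowing, with aqueous WP/EC preparations containing 0.5% additive, 600 l/ha water volume; a, b, c mark dose levels.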

Lolium rigidum (LOLRI) [15] = test: Pre-emergence herbicidal action against LOLRI
Procedure, shortened: as §1

[16] = tested on: Matricaria inodora (MATIN); test: Post-emergence herbicidal action against MATIN
Experimental: Seeds of monocotyledonous and dicotyledonous weeds and crop plants are placed in sandy loam in plastic or organic planting pots, covered with soil and cultivated in a greenhouse under controlled growth conditions. 2 to 3 weeks after sowing, the test plants are treated at the one-leaf stage. The compounds of the invention, formulated in the form of wettable powders (WP) or as emulsion concentrates (EC), are then sprayed onto the green parts of the plants as aqueous suspension or emulsion with addition of 0.5% additive at a water application rate of 600 l/ha (converted). After the test plants have been kept in the greenhouse under optimum growth conditions for about 3 weeks, the activity of the preparations is rated visually in comparison to untreated controls. For example, 100% activity=the plants have died, 0% activity=like control plants.
Tables B1 to B13 below show the effects of selected compounds of the general formula (I) according to Table 1 on various harmful plants and at an application rate corresponding to 320 g/ha or lower, which were obtained by the experimental procedure mentioned above. The appendices “a”, “b” and “c” give differentiation by dosage used with otherwise the same harmful plants tested.

[17] = tested on: Pharbitis purpurea (PHBPU); test: Post-emergence herbicidal action against PHBPU
Procedure, shortened: as §2

[18] = tested on: Polygonum convolvulus (POLCO); test: Pre-emergence herbicidal action against POLCO
Procedure, shortened: as §1

[19] = tested on: Echinochloa crus-galli (ECHCG); test: Pre-emergence herbicidal action against ECHCG
Procedure, shortened: as §1

Lolium rigidum (LOLRI) [20] = test: Post-emergence herbicidal action against LOLRI
Procedure, shortened: as §2

[21] = tested on: Amaranthus retroflexus (AMARE); test: Post-emergence herbicidal action against AMARE
Procedure, shortened: as §2

Oryza sativa (ORYSA) = conditions: crop plant compatibility, 80 g/ha, effect in comparison to untreated controls
Procedure, shortened: as §3

Row | Structure (SMILES) | Pre-emergence action against SETVI in % (Setaria viridis (SETVI) [1]; dosage 320 g/ha) | Pre-emergence action against AMARE in % ([2]; 80 g/ha) | Pre-emergence action against AMARE in % ([2]; 320 g/ha) | Post-emergence action against AVEFA in % (Avena fatua (AVEFA) [3]; 320 g/ha) | Pre-emergence action against VIOTR in % (Viola tricolor (VIOTR) [4]; 320 g/ha, Viola tricolor) | Pre-emergence action against PHBPU in % [5] | Post-emergence action against VIOTR in % (Viola tricolor (VIOTR) [6]; 320 g/ha) | Post-emergence action against ALOMY in % ([7]; 80 g/ha) | Post-emergence action against ALOMY in % ([7]; 320 g/ha) | Post-emergence action against SETVI in % (Setaria viridis (SETVI) [8]; dosage 320 g/ha) | Pre-emergence action against VERPE in % ([9]; dosage 320 g/ha) | Post-emergence action against VERPE in % ([10]; 320 g/ha, VERPE) | Post-emergence action against VERPE in % ([10]; dosage 80 g/ha) | Pre-emergence action against MATIN in % [11] | Pre-emergence action against AVEFA in % (Avena fatua (AVEFA) [12]; 320 g/ha) | Pre-emergence action against ALOMY ([13]; 80 g/ha) | Pre-emergence action against ALOMY ([13]; 320 g/ha) | Post-emergence action against ECHCG in % ([14]; dosage 80 g/ha) | Post-emergence action against ECHCG in % ([14]; dosage 320 g/ha) | Pre-emergence action against LOLRI in % (Lolium rigidum (LOLRI) [15]; dosage 80 g/ha) | other results
1 | CCOC(=O)COc1nn(-c2ncccc2C)c(-c2ccc(F)nc2)c1Cl [Example I-316] | 100% | 100% | 100% | 100% | 100% | 90% | 90% | 100% | 100% | 90% | 100% | 90% | 90% | 100% | 100% | 90% | 100% | 90% | 90% | 100% | Pre-emergence action against SETVI in % (Setaria viridis (SETVI) [1]; dosage 80 g/ha): 100%; Post-emergence action against AVEFA in % (Avena fatua (AVEFA) [3]; 80 g/ha): 90%; Pre-emergence action against VIOTR in % (Viola tricolor (VIOTR) [4]; dosage 80 g/ha): 100%; Post-emergence action against VIOTR in % (Viola tricolor (VIOTR) [6]; 80 g/ha): 90%; Post-emergence action against SETVI in % (Setaria viridis (SETVI) [8]; dosage 80 g/ha): 90%; Post-emergence action against ZEAMX in % (Zea mays (ZEAMX)): 0%; Pre-emergence action against LOLRI in % (Lolium rigidum (LOLRI) [15]; dosage 320 g/ha): 100%; Post-emergence action against MATIN in % ([16]; dosage 80 g/ha): 80%; Post-emergence action against MATIN in % ([16]; dosage 320 g/ha): 90%; Post-emergence action against PHBPU in % ([17]; dosage 80 g/ha): 90%; Post-emergence action against PHBPU in % ([17]; dosage 320 g/ha): 90%; Pre-emergence action against POLCO in % ([18]; dosage 80 g/ha): 100%; Pre-emergence action against POLCO in % ([18]; dosage 320 g/ha): 100%; Pre-emergence action against ECHCG in % ([19]; dosage 80 g/ha): 100%; Pre-emergence action against ECHCG in % ([19]; dosage 320 g/ha): 100%; Post-emergence action against LOLRI in % (Lolium rigidum (LOLRI) [20]; dosage 80 g/ha): 100%; Post-emergence action against LOLRI in % (Lolium rigidum (LOLRI) [20]; dosage 320 g/ha): 100%
2 | Cc1cccnc1-n1nc(OCC(=O)O)c(Cl)c1-c1ccc(F)nc1 [Example I-323] | 100% | 100% | 100% | 90% | 100% | 90% | 90% | 100% | 100% | 90% | 100% | 90% | 90% | 100% | 100% | 100% | 100% | 90% | 90% | 100% | Post-emergence action against AVEFA in % (Avena fatua (AVEFA) [3]; 80 g/ha): 90%; Pre-emergence action against VIOTR in % (Viola tricolor (VIOTR) [4]; dosage 80 g/ha): 100%; Post-emergence action against VIOTR in % (Viola tricolor (VIOTR) [6]; 80 g/ha): 90%; Pre-emergence action against AVEFA in % (Avena fatua (AVEFA) [12]; 80 g/ha): 90%; Post-emergence action against ZEAMX in % (Zea mays (ZEAMX)): 0%; Pre-emergence action against LOLRI in % (Lolium rigidum (LOLRI) [15]; dosage 320 g/ha): 100%; Post-emergence action against MATIN in % ([16]; dosage 320 g/ha): 90%; Post-emergence action against PHBPU in % ([17]; dosage 320 g/ha): 80%; Pre-emergence action against POLCO in % ([18]; dosage 320 g/ha): 100%; Pre-emergence action against ECHCG in % ([19]; dosage 80 g/ha): 90%; Pre-emergence action against ECHCG in % ([19]; dosage 320 g/ha): 100%; Post-emergence action against LOLRI in % (Lolium rigidum (LOLRI) [20]; dosage 80 g/ha): 90%; Post-emergence action against LOLRI in % (Lolium rigidum (LOLRI) [20]; dosage 320 g/ha): 90%
3 | C=C(COC(=O)COc1nn(-c2ccccn2)c(-c2ccc(F)nc2)c1Br)C(=O)OC [Example I-370] | 100% | 100% | 100% | 90% | 100% | 90% | 80% | 100% | 100% | 80% | 100% | 90% | 90% | 100% | 90% | 80% | 100% | 80% | 80% | 90% | Pre-emergence action against SETVI in % (Setaria viridis (SETVI) [1]; dosage 80 g/ha): 100%; Post-emergence action against SETVI in % (Setaria viridis (SETVI) [8]; dosage 80 g/ha): 80%; Pre-emergence action against VERPE in % ([9]; dosage 80 g/ha): 90%; Post-emergence action against AMARE in % ([21]; 80 g/ha, visual rating about 3 weeks after treatment vs untreated controls (100% = plants have died, 0% = like control plants)): 80%; Post-emergence action against AMARE in % ([21]; 320 g/ha, visual rating about 3 weeks after treatment): 80%; Pre-emergence action against AVEFA in % (Avena fatua (AVEFA) [12]; 80 g/ha): 90%; Post-emergence action against ORYSA in % (Oryza sativa (ORYSA)): 0%; Pre-emergence action against LOLRI in % (Lolium rigidum (LOLRI) [15]; dosage 320 g/ha): 100%; Post-emergence action against MATIN in % ([16]; dosage 80 g/ha): 80%; Post-emergence action against MATIN in % ([16]; dosage 320 g/ha): 80%; Post-emergence action against PHBPU in % ([17]; dosage 80 g/ha): 80%; Post-emergence action against PHBPU in % ([17]; dosage 320 g/ha): 90%; Pre-emergence action against POLCO in % ([18]; dosage 80 g/ha): 80%; Pre-emergence action against POLCO in % ([18]; dosage 320 g/ha): 100%; Pre-emergence action against ECHCG in % ([19]; dosage 320 g/ha): 100%; Post-emergence action against LOLRI in % (Lolium rigidum (LOLRI) [20]; dosage 320 g/ha): 90%

— patent US20240041042A1, “1-(PYRIDYL)-5-AZINYLPYRAZOLE DERIVATIVES, AND THEIR USE FOR CONTROL OF UNDESIRED PLANT GROWTH” (Bayer Aktiengesellschaft, priority 2020, published 2024)
